Laboratory results from the kinase profiling compilation of Christmann-Franck et al. (2016).

Columns and labels:
ABL2 (human) = ABL2 (human) (UniProt P42684); experiment: KINOMEscan competition binding; settings: compound 10.0 µM
CHEK1 (human) = CHEK1 (human) (UniProt O14757); experiment: KINOMEscan competition binding; settings: compound 10.0 µM
LATS2 (human) = LATS2 (human) (UniProt Q9NRM7); experiment: KINOMEscan competition binding; settings: compound 10.0 µM
LYN (human) = LYN (human) (UniProt P07948); experiment: KINOMEscan competition binding; settings: compound 10.0 µM
MAP3K3 (human) = MAP3K3 (human) (UniProt Q99759); experiment: KINOMEscan competition binding; settings: compound 10.0 µM
MYLK2 (human) = MYLK2 (human) (UniProt Q9H1R3); experiment: KINOMEscan competition binding; settings: compound 10.0 µM
PAK4 (human) = PAK4 (human) (UniProt O96013); experiment: KINOMEscan competition binding; settings: compound 10.0 µM
PHKG1 (human) = PHKG1 (human) (UniProt Q16816); experiment: KINOMEscan competition binding; settings: compound 10.0 µM
PTK2B (human) = PTK2B (human) (UniProt Q14289); experiment: KINOMEscan competition binding; settings: compound 10.0 µM
[1] = system: RET (human), P07949 [M918T]; experiment: KINOMEscan competition binding; settings: compound 10.0 µM
STK25 (human) = STK25 (human) (UniProt O00506); experiment: KINOMEscan competition binding; settings: compound 10.0 µM
TNK2 (human) = TNK2 (human) (UniProt Q07912); experiment: KINOMEscan competition binding; settings: compound 10.0 µM
BRAF (human) = BRAF (human) (UniProt P15056); experiment: KINOMEscan competition binding; settings: compound 10.0 µM
[2] = system: BRAF (human), P15056 [V600E]; experiment: KINOMEscan competition binding; settings: compound 10.0 µM
PIM1 (human) = PIM1 (human) (UniProt P11309); experiment: SelectScreen, TR FRET
PIM2 (human) = PIM2 (human) (UniProt Q9P1W9); experiment: SelectScreen, TR FRET
HIPK1 (human) = HIPK1 (human) (UniProt Q86Z02); experiment: SelectScreen, TR FRET
HIPK2 (human) [3] = target: HIPK2 (human) (UniProt Q9H2X6); experiment: SelectScreen, TR FRET
AURKB (human) = AURKB (human) (UniProt Q96GD4); experiment: SelectScreen, TR FRET
AURKC (human) = AURKC (human) (UniProt Q9UQB9); experiment: SelectScreen, TR FRET
DYRK1A (human) = DYRK1A (human) (UniProt Q13627); experiment: KINOMEscan competition binding
DYRK2 (human) = DYRK2 (human) (UniProt Q92630); experiment: KINOMEscan competition binding
HIPK2 (human) [4] = target: HIPK2 (human) (UniProt Q9H2X6); experiment: KINOMEscan competition binding

Sequence of RET (human), P07949 [M918T] (P07949 whole entry M918T, looked up): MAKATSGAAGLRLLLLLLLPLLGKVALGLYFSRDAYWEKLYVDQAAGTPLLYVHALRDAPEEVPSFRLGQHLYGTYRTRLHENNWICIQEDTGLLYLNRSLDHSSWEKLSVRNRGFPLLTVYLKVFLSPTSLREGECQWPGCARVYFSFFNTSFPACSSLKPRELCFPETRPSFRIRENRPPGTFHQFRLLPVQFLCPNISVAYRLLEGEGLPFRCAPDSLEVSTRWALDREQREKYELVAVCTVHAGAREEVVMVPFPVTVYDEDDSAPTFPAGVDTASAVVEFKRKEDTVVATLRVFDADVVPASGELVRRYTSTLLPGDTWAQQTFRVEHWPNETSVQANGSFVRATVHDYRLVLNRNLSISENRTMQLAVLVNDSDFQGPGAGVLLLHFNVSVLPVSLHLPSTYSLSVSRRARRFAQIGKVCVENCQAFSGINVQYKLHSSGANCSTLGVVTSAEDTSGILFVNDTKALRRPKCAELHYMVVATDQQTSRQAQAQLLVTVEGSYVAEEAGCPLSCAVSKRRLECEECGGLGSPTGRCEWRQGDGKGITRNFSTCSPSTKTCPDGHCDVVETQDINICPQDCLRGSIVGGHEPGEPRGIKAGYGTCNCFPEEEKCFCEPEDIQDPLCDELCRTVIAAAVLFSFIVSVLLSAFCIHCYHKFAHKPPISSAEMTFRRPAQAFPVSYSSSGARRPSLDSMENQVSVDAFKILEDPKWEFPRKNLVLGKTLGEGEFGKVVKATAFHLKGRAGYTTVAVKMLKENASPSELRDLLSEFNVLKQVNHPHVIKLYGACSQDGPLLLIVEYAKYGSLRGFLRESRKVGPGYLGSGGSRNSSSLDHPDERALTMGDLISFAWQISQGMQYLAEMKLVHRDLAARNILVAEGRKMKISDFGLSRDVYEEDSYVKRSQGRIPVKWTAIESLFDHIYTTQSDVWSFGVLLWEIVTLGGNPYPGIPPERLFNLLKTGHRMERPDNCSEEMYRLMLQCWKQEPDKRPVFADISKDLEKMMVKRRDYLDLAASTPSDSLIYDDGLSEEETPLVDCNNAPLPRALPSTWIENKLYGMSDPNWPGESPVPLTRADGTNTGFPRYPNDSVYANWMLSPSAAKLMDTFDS
Sequence of PIM2 (human) (Q9P1W9 whole entry, looked up): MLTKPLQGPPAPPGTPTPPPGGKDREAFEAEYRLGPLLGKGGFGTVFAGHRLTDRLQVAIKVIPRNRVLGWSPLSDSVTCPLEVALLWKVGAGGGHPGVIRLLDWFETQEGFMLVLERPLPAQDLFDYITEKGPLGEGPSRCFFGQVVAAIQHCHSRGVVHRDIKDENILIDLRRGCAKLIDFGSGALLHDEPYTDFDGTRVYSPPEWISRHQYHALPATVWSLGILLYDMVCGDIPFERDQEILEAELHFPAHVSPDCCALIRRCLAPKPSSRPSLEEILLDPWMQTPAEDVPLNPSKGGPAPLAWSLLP
Sequence of HIPK1 (human) (Q86Z02 whole entry, looked up): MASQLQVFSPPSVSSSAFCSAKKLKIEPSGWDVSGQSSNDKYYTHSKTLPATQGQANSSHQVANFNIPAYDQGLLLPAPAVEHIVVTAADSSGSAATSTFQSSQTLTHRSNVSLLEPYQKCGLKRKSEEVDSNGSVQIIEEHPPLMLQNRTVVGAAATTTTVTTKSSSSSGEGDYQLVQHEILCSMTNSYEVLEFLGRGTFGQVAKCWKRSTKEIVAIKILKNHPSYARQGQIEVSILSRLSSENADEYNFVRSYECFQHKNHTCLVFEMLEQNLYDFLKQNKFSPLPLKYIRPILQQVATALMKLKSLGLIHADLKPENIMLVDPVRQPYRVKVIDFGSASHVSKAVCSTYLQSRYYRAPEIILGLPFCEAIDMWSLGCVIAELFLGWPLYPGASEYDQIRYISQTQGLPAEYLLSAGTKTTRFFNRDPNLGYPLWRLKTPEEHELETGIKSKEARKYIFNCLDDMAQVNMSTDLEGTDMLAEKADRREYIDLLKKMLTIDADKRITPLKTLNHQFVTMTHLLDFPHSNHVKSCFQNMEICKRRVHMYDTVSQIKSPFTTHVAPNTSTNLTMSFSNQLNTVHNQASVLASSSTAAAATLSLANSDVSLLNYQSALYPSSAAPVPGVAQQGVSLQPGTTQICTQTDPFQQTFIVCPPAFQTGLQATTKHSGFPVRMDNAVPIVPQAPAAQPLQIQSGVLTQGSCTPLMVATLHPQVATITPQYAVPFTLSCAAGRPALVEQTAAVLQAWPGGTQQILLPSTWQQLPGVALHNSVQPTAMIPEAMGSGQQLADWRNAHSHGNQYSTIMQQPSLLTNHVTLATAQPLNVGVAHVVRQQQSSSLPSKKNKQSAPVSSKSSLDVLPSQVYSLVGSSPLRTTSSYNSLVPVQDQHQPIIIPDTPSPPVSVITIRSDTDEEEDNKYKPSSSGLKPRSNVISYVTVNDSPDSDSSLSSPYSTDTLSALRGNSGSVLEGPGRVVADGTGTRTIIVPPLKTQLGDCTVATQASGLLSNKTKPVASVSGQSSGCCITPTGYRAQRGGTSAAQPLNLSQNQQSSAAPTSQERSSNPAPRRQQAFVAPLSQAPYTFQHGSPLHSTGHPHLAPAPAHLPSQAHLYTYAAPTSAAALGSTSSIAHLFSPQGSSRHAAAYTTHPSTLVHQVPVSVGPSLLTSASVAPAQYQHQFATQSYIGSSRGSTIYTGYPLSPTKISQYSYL
Sequence of MAP3K3 (human) (Q99759 whole entry, looked up): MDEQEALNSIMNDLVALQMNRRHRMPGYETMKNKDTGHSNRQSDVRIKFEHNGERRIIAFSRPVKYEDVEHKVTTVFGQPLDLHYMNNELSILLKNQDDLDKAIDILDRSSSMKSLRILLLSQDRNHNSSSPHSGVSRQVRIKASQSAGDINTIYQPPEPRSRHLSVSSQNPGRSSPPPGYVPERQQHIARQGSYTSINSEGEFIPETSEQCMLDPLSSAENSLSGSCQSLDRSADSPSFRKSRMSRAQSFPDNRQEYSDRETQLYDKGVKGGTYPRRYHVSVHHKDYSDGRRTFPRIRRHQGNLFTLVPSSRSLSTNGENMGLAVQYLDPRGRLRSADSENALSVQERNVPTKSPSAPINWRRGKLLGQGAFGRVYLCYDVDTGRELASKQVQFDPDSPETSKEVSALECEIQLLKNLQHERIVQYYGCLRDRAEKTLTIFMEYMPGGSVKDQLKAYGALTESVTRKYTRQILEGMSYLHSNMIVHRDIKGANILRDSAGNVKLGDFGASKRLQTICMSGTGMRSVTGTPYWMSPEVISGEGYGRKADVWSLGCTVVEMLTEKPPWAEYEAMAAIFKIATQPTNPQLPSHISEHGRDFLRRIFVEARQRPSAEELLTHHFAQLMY
Sequence of PTK2B (human) (Q14289 whole entry, looked up): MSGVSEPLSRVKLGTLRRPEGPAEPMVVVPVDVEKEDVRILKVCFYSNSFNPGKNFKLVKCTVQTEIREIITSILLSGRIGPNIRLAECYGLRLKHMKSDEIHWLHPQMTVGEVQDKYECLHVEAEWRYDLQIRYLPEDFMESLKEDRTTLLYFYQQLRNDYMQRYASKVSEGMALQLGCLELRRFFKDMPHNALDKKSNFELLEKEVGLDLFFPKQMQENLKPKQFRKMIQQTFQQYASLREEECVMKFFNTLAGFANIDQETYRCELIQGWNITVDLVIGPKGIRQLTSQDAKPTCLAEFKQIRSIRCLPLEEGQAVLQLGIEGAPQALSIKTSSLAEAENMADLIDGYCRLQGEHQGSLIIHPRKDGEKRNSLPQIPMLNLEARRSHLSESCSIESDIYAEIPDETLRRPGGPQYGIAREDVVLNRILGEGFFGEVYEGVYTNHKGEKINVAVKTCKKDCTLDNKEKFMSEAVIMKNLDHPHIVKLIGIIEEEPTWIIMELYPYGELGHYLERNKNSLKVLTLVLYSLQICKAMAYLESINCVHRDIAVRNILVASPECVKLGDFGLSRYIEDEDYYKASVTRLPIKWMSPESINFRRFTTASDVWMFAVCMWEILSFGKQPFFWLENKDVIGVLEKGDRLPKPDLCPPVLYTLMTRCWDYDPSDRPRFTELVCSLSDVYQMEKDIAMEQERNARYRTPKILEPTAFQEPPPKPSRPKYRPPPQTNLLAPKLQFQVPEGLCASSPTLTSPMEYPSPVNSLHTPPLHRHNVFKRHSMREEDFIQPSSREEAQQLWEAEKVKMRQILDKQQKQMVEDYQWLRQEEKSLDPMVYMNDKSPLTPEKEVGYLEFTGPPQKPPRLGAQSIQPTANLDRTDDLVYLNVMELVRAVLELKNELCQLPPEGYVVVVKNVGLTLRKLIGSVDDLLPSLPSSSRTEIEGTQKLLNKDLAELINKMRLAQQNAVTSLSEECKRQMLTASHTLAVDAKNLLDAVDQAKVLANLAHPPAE
Sequence of PIM1 (human) (P11309 whole entry, looked up): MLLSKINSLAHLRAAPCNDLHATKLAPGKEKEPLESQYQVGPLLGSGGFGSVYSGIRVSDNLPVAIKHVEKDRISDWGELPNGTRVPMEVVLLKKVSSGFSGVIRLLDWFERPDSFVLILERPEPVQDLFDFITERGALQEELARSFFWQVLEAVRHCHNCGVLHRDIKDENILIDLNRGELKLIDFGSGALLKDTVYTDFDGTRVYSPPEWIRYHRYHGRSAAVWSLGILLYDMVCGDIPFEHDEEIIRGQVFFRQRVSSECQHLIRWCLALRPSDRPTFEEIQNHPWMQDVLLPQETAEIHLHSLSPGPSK
Sequence of CHEK1 (human) (O14757 whole entry, looked up): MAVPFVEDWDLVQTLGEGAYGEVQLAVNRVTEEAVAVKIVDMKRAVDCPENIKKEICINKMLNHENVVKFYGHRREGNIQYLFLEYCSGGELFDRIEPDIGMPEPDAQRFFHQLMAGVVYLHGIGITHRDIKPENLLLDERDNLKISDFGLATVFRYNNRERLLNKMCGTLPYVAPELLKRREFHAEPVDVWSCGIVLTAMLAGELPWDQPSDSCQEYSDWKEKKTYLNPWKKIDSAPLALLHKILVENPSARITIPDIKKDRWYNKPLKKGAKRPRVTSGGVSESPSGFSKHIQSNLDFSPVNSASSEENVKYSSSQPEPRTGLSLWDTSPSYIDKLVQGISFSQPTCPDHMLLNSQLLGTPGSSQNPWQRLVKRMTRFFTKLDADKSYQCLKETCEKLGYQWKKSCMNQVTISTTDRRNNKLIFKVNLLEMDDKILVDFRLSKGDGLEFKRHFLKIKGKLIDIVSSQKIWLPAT

kinase still bound, per cent of control (ABL2 (human)) | kinase still bound, per cent of control (CHEK1 (human)) | kinase still bound, per cent of control (LATS2 (human)) | kinase still bound, per cent of control (LYN (human)) | kinase still bound, per cent of control (MAP3K3 (human)) | kinase still bound, per cent of control (MYLK2 (human)) | kinase still bound, per cent of control (PAK4 (human)) | kinase still bound, per cent of control (PHKG1 (human)) | kinase still bound, per cent of control (PTK2B (human)) | kinase still bound, per cent of control [1] | kinase still bound, per cent of control (STK25 (human)) | kinase still bound, per cent of control (TNK2 (human)) | SMILES | also measured
98% | 100% | 75% | 79% | 93% | 100% | 100% | 54% | 100% | 100% | 89% | 20% | COc1cc(N2CCN(C)CC2)ccc1Nc1ncc2c(n1)N(C)c1ccccc1N(C)C2=O | 
96% | 100% | 100% | 92% | 94% | 98% | 90% | 89% | 57% | 100% | 99% | 23% | COc1cc(N2CCC(O)CC2)ccc1Nc1ncc2c(n1)N1CCc3cccc(c31)C(=O)N2C | 
 | 3.4% |  |  |  |  |  |  |  |  |  |  | N=C1NC(=O)/C(=C/c2c[nH]c(=O)c(-c3ccc(N4CCNCC4)nc3)c2)S1 | IC50 (HIPK1 (human)): 507 nM; IC50 (HIPK2 (human) [3]): 289 nM
 |  |  |  |  |  |  |  |  |  | 20% | 34% | O=C1NC(=S)S/C1=C\c1ccc(-c2cncc3ccccc23)o1 | IC50 (PIM1 (human)): 284 nM; IC50 (PIM2 (human)): 92 nM
92% | 60% | 100% | 100% | 72% | 90% | 84% | 69% | 88% | 96% | 80% | 25% | COc1cc(N2CCN(C)CC2)ccc1Nc1ncc2c(n1)N(C)c1sccc1C(=O)N2C | 
100% | 98% | 100% | 100% | 100% | 88% | 100% | 100% | 100% | 100% | 100% | 100% | CN1C(=O)c2ccccc2N(C)c2nc(NS(=O)(=O)c3ccc(N)cc3)ncc21 | 
78% | 2.4% | 100% | 77% | 9.9% | 14% | 98% | 29% | 100% | 46% | 77% | 100% | O=C1NC(=O)/C(=C/c2c[nH]c(=O)c(-c3ccc(N4CCNCC4)nc3)c2)S1 | Kd (DYRK1A (human)): 8.8 nM; Kd (DYRK2 (human)): 250 nM; Kd (HIPK2 (human) [4]): 9.5 nM; IC50 (HIPK1 (human)): 136 nM; IC50 (HIPK2 (human) [3]): 74 nM

Continued, molecule first:

SMILES | kinase still bound, per cent of control (ABL2 (human)) | kinase still bound, per cent of control (CHEK1 (human)) | kinase still bound, per cent of control (LATS2 (human)) | kinase still bound, per cent of control (LYN (human)) | kinase still bound, per cent of control (MAP3K3 (human)) | kinase still bound, per cent of control (MYLK2 (human)) | kinase still bound, per cent of control (PAK4 (human)) | kinase still bound, per cent of control (PHKG1 (human)) | kinase still bound, per cent of control (PTK2B (human)) | kinase still bound, per cent of control [1] | kinase still bound, per cent of control (STK25 (human)) | kinase still bound, per cent of control (TNK2 (human)) | also measured
CN1CCN(c2ccc(C(=O)Nc3ncc4c(n3)N(C)c3ccccc3C(=O)N4C)cc2)CC1 | 100% | 100% | 100% | 94% | 100% | 100% | 100% | 98% | 100% | 98% | 100% | 92% | 
CN1C(=O)c2ccccc2N(C)c2nc(Nc3ccc(N4CCC(O)CC4)cc3)ncc21 | 33% | 76% | 100% | 80% | 0.35% | 80% | 97% | 95% | 78% | 4.2% | 96% | 29% | kinase still bound, per cent of control (BRAF (human)): 94%; kinase still bound, per cent of control [2]: 100%
N=C1NC(=O)/C(=C/c2ccc(-c3ccccc3O)o2)S1 |  |  |  |  |  |  |  |  |  |  |  |  | IC50 (PIM1 (human)): 94 nM; IC50 (PIM2 (human)): 114 nM
N=C1NC(=O)/C(=C/c2ccc(-c3csc4ccccc34)o2)S1 |  |  |  |  |  |  |  |  |  |  |  |  | IC50 (PIM1 (human)): 3270 nM; IC50 (PIM2 (human)): 628 nM
CS(=O)(=O)Nc1ccc(-c2cc(/C=C3\SC(=N)NC3=O)c[nH]c2=O)cc1 |  | 32% |  |  |  |  |  |  |  |  |  |  | IC50 (HIPK1 (human)): 1160 nM; IC50 (HIPK2 (human) [3]): 300 nM
N=C1NC(=O)/C(=C/c2ccc(-c3cncc4ccccc34)o2)S1 |  |  |  |  |  | 12% | 18% | 23% |  | 21% | 18% |  | IC50 (AURKB (human)): 29 nM; IC50 (AURKC (human)): 154 nM
COc1cc(N2CCN(C)CC2)ccc1Nc1ncc2c(n1)Nc1ccccc1NC2=O | 79% | 75% | 89% | 77% | 86% | 69% | 94% | 46% | 99% | 72% | 84% | 56% | 
CS(=O)(=O)Nc1ccc(-c2ncc(/C=C3\SC(=N)NC3=O)s2)cc1 |  |  |  |  |  |  |  |  |  | 3.4% |  |  | 
CS(=O)(=O)Nc1ccc(-c2cncc(/C=C3\SC(=N)NC3=O)c2)cc1 |  |  |  |  |  |  |  |  |  |  |  |  | kinase still bound, per cent of control (BRAF (human)): 32%; kinase still bound, per cent of control [2]: 34%
N=C1NC(=O)/C(=C/c2ccc(-c3ccc(C(N)=O)cc3O)o2)S1 |  |  |  |  |  |  |  |  |  |  |  |  | IC50 (PIM1 (human)): 32 nM; IC50 (PIM2 (human)): 57 nM
CN1C(=O)[C@H]2CCC[C@H]2N(C2CCCC2)c2nc(Nc3ccc(C(N)=O)cc3)ncc21 |  |  |  |  |  | 15% |  |  |  |  |  |  | 
N=C1NC(=O)/C(=C/c2ccc(-c3ccc(F)cc3O)o2)S1 |  |  |  |  |  |  |  |  |  |  |  |  | IC50 (PIM1 (human)): 110 nM; IC50 (PIM2 (human)): 96 nM
CSC1=NC(=O)/C(=C/c2c[nH]c(=O)c(-c3ccc(NS(C)(=O)=O)cc3)c2)S1 |  |  |  |  |  |  |  |  |  |  |  |  | IC50 (HIPK1 (human)): 1960 nM; IC50 (HIPK2 (human) [3]): 618 nM
Nc1cccc(-c2cc(/C=C3\SC(=O)NC3=O)c[nH]c2=O)c1 |  |  |  |  |  |  |  |  |  |  |  |  | IC50 (HIPK1 (human)): 244 nM; IC50 (HIPK2 (human) [3]): 166 nM
